Measured values as given in patent publication US10577378B2, “EIF4A-inhibiting compounds and methods related thereto” (eFFECTOR Therapeutics, Inc., priority 2015, dated 2020).

System: MDA-MB-231 human breast cancer cells
Experiment: Cell proliferation assay (CellTiter-Glo, 72 hours treatment)
Assay type: cell-based
Settings: Homo sapiens; MDA-MB-231 cells, 72 hours at 37° C., CellTiter-Glo; read-out: MDA-MB-231 cell proliferation assay (IC50)
Summary of the method: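 MDA-MB-231 cells seeded at 2,500 cells/well, treated next day with compound or DMSO vehicle for 72 h at 37 °C. Proliferation read by CellTiter-Glo; IC50 from sigmoidal non-linear regression, binned as +++ (<100 nM), ++ (100–1000 nM), + (>1000 nM).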

Row | Structure (SMILES) | IC50
1 | CN(C)C(=O)[C@H]1[C@@H](O)[C@@]2(O)c3c(Cl)cncc3O[C@@]2(c2ccc(Br)cc2)[C@@H]1c1ccccc1 (racemic) [97F, Rac-(4bS,5R,6R,7S,7aR)-7a-(4-bromophenyl)-4-chloro-4b,5-dihydroxy-N,N-dimethyl-7-phenyl-4b,6,7,7a-tetrahydro-5H-cyclopenta[4,5]furo[2,3-c]pyridine-6-carboxamide] | 100 to 1000 nM
2 | COc1nc(C#N)cc2c1[C@]1(O)[C@H](O)[C@H](CNC(C)(C)C)[C@@H](c3ccccc3)[C@]1(c1ccc(C#N)cc1)O2 (racemic) [155F, Rac-(5aR,6S,7S,8R,8aS)-7-((tert-butylamino)methyl)-5a-(4-cyanophenyl)-8,8a-dihydroxy-1-methoxy-6-phenyl-5a,7,8,8a-tetrahydro-6H-cyclopenta[4,5]furo[3,2-c]pyridine-3-carbonitrile] | 100 to 1000 nM
3 | COc1nc(C#N)cc2c1[C@]1(O)[C@H](O)[C@H](CN3CCC3)[C@@H](c3ccccc3)[C@]1(c1ccc(C#N)cc1)O2 (single isomer, unassigned) [212F] | < 100 nM
4 | COC[C@H]1[C@@H](O)[C@@]2(O)c3ncc(Cl)cc3O[C@@]2(c2ccc(Br)cc2)[C@@H]1c1ccccc1 (racemic) [62F, rac-(5aR,6S,7S,8R,8aS)-5a-(4-bromophenyl)-3-chloro-7-(methoxymethyl)-6-phenyl-5a,6,7,8-tetrahydro-8aH-cyclopenta[4,5]furo[3,2-b]pyridine-8,8a-diol] | 100 to 1000 nM
5 | COC(=O)C1(F)[C@@H](O)[C@@]2(O)c3ncc(Cl)cc3O[C@@]2(c2ccc(Br)cc2)[C@@H]1c1ccccc1 (mixture of isomers) [58F, Rac-methyl (5aR,6S,8S,8aS)-5a-(4-bromophenyl)-3-chloro-7-fluoro-8,8a-dihydroxy-6-phenyl-5a,7,8,8a-tetrahydro-6H-cyclopenta[4,5]furo[3,2-b]pyridine-7-carboxylate] | > 1000 nM
6 | COc1ccc([C@@]23Oc4cc(OC)ccc4[C@]2(NC(C)=O)[C@H](O)[C@H](C(=O)N(C)C)[C@H]3c2ccccc2)cc1 (racemic) [45F, Rac-(1R,2R,3S,3aR,8bS)-8b-acetamido-1-hydroxy-6-methoxy-3a-(4-methoxyphenyl)-N,N-dimethyl-3-phenyl-2,3,3a,8b-tetrahydro-1H-cyclopenta[b]benzofuran-2-carboxamide] | > 1000 nM
7 | COc1nc(C#N)cc2c1[C@]1(O)[C@H](O)[C@H](CN(C)C)[C@@H](c3ccccc3)[C@]1(c1ccc(Cl)cc1)O2 (single isomer, unassigned) [145F] | < 100 nM
8 | COc1nc(Cl)cc2c1[C@]1(O)[C@H](O)[C@H](CN(C)C)[C@@H](c3ccccc3)[C@]1(c1ccc(C(F)F)cc1)O2 (racemic) [143F, Rac-(5aR,6S,7S,8R,8aS)-3-chloro-5a-(4-(difluoromethyl)phenyl)-7-((dimethylamino)methyl)-1-methoxy-6-phenyl-5a,6,7,8-tetrahydro-8aH-cyclopenta[4,5]furo[3,2-c]pyridine-8,8a-diol] | < 100 nM
9 | COc1cncc2c1[C@]1(O)[C@H](O)[C@H](C(=O)N3CCCCC3)[C@@H](c3ccccc3)[C@]1(c1ccc(Br)cc1)O2 (racemic) [257F, Rac-((4bS,5R,6R,7S,7aR)-7a-(4-bromophenyl)-4b,5-dihydroxy-4-methoxy-7-phenyl-4b,6,7,7a-tetrahydro-5H-cyclopenta[4,5]furo[2,3-c]pyridin-6-yl)(piperidin-1-yl)methanone] | < 100 nM
10 | COc1cncc2c1[C@]1(O)[C@H](O)[C@H](C(=O)NC3COC3)[C@@H](c3ccccc3)[C@]1(c1ccc(Br)cc1)O2 (racemic) [239F, Rac-(4bS,5R,6R,7S,7aR)-7a-(4-bromophenyl)-4b,5-dihydroxy-4-methoxy-N-(oxetan-3-yl)-7-phenyl-4b,6,7,7a-tetrahydro-5H-cyclopenta[4,5]furo[2,3-c]pyridine-6-carboxamide] | < 100 nM
11 | COc1nc(Cl)cc2c1[C@]1(O)[C@H](O)[C@H](CN3CCC(F)(F)CC3)[C@@H](c3ccccc3)[C@]1(c1ccc(C#N)cc1)O2 (racemic) [157Fb, Rac-4-((5aR,6S,7S,8R,8aS)-3-chloro-7-((4,4-difluoropiperidin-1-yl)methyl)-8,8a-dihydroxy-1-methoxy-6-phenyl-6,7,8,8a-tetrahydro-5aH-cyclopenta[4,5]furo[3,2-c]pyridin-5a-yl)benzonitrile] | 100 to 1000 nM
12 | COc1cncc2c1[C@]1(O)[C@H](O)[C@H](CN(C)CC(C)(C)O)[C@@H](c3ccccc3)[C@]1(c1ccc(C#N)cc1)O2 (single isomer, unassigned) [252F] | < 100 nM
